Test results taken from patent US20080064718A1, “INHIBITORS OF PROTEIN TYROSINE KINASE ACTIVITY” (priority 2006, published 2008).

Tests used:
[1] = target: recombinant human c-Met/HGF receptor (Homo sapiens, UniProt P08581); assay: In vitro receptor tyrosine kinase assay, c-Met/HGF receptor (DELFIA)
VEGF receptor KDR = target: T1, VEGF receptor KDR (Homo sapiens, UniProt P35968); assay: In vitro receptor tyrosine kinase assay, VEGF receptor KDR (DELFIA); assay type: biochemical; conditions: GST-VEGFR2 806-1356, ATP 0.6 uM; read-out: VEGFR IC50
T1 construct: made in house; host or cells: Sf9 cells (Spodoptera frugiperda), recombinant baculovirus
T1 sequence (P35968 806-1356): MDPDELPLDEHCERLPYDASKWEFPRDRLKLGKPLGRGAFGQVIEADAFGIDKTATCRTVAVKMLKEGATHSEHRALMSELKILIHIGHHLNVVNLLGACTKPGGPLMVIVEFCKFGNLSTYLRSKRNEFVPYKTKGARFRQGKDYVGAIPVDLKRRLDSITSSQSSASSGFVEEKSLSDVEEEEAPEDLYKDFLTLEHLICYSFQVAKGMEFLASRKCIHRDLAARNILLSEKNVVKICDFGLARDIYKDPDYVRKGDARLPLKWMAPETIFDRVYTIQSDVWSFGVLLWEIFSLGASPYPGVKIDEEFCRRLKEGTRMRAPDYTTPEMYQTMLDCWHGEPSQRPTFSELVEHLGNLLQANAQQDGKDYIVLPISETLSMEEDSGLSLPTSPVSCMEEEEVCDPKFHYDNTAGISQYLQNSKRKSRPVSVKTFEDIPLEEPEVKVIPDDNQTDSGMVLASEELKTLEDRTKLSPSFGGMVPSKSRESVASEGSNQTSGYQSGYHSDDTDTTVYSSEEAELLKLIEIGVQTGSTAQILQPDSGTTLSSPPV
Description: In the case of VEGF receptor KDR a 1.6-kb cDNA corresponding to the catalytic domain of VEGFR2 or KDR (Genbank accession number AF035121 amino acid 806 to 1356) is cloned into the Pst I site of the pDEST20 Gateway vector (Invitrogen) for the production of a GST-tagged version of that enzyme.
The GST-VEGFR2806-1356 protein is expressed in Sf9 cells (Spodoptera frugiperda) upon infection with recombinant baculovirus construct.
The supernatant is loaded onto a GST-agarose column (Sigma) equilibrated with PBS pH 7.3. Following a four column volume (CV) wash with PBS pH 7.3+1% Triton X-100 and 4 CV wash with buffer B (50 mM Tris pH 8.0, 20% glycerol and 100 mM NaCl), bound proteins are step eluted with 5 CV of buffer B supplemented with 5 mM DTT and 15 mM glutathion. […] Final GST-VEGFR2806-1356 protein preparations concentrations are about 0.7 mg/ml with purity approximating 70%.

c-Met = target: T2, c-Met (Homo sapiens, UniProt P08581); assay: c-Met phosphorylation direct ELISA in MKN45 cells; assay type: cell-based; conditions: 3 h treatment
T2 construct: endogenous in cells; host or cells: MKN45 gastric carcinoma cells
T2 sequence (P08581 25-1390): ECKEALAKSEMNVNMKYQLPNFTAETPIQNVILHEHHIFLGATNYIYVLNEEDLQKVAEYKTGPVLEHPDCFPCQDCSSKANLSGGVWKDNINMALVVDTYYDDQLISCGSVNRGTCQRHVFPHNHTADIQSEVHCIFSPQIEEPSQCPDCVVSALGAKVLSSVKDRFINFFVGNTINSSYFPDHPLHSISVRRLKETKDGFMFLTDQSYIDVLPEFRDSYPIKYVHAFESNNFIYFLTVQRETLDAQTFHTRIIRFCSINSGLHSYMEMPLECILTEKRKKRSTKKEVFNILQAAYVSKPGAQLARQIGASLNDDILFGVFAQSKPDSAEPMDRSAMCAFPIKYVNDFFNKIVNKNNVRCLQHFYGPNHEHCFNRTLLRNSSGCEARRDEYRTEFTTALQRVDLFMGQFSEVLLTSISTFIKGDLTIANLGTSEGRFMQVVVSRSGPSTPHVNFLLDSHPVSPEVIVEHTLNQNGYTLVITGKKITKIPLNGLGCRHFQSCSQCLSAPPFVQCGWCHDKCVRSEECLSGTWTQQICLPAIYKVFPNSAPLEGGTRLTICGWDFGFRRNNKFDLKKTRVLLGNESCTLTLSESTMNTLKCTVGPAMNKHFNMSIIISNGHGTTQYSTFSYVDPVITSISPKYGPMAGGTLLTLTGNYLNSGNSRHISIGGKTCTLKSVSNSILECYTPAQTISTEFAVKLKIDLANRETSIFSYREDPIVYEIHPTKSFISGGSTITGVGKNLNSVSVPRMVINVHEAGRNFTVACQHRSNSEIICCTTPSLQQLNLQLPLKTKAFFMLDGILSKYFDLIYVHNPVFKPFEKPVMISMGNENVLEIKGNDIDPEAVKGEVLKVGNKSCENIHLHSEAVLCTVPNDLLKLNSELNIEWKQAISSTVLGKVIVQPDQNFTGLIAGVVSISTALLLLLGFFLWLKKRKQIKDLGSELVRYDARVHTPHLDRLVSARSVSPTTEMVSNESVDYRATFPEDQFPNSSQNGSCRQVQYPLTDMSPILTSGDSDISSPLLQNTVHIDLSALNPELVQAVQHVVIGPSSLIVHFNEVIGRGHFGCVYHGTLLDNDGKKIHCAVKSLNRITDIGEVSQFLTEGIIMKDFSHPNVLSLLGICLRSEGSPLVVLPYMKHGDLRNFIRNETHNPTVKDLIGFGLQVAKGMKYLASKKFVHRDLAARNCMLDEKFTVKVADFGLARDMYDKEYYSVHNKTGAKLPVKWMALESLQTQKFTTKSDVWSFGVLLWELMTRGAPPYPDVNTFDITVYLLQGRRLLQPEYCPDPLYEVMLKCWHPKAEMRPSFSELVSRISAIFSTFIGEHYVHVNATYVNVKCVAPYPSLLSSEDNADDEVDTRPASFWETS
Description: Alternatively, the following assay is used to determine inhibition of c-Met phosphorylation.
The c-Met receptor is expressed in numerous cancer cell lines derived from tumors of epithelial origin. In MKN45 gastric carcinoma cells the c-Met gene is amplified, resulting in several-fold overexpression of the receptor and its constitutive activation.
Cell treatments: MKN45 cells are seeded into wells of 96-well plates at a density of 3×10^4 cells/well in RPMI medium supplemented with 10% FBS. […] Inhibitors are added to the medium in triplicate wells at the indicated doses.
After an overnight protein binding incubation at 4° C., lysates are aspirated and wells are blocked for 1 h at 37° C. in TBST supplemented with 5% BSA. Plates are incubated with the primary antibodies anti-phospho-Tyrosine (Millipore, 4G10) diluted 1/15000 in TBST supplemented with 5% BSA for 1 h at room temperature. Plates are washed 3 times on a plate washer (SkanWasher, Molecular Devises), and incubated with the reporter antibody […] (Sigma) diluted 1/15000 in TBST supplemented with 5% BSA, for 1 h at room temperature. Plates are washed 3 times with TBST using on a plate washer and subsequently incubated with chemiluminescent substrate solution (ECL, Roche). Luminescence signal is captured on a Polar Star Optima apparatus (BMG LabTech).
Average values of the triplicate samples are used to prepare IC50 curves using a 4-parameter fit model. These curves are calculated using, for example, GraFit 5.0 software. For assay standardization purpose, an internal control is included on each experimental test plate.

A549 = A549 inhibition of wound healing; assay type: cell-based; conditions: Homo sapiens; A549 cells; read-out: A549 INHIB WND ING IC50 UM
DU145 = DU145 scattering; assay type: cell-based; conditions: Homo sapiens, DU-145; DU145 cells; read-out: CMET DU145 SCATT HEAL- IC50 UM

Sequence of recombinant human c-Met/HGF receptor (P08581 1078-1337): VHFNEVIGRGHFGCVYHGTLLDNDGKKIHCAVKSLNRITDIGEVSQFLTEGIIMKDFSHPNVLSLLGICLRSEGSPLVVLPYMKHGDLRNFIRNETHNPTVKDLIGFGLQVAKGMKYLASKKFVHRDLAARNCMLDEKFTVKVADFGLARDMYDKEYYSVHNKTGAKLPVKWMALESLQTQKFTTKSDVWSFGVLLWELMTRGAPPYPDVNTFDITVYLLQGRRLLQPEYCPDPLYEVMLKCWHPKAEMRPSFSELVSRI

| Structure (SMILES) | IC50 [1] [nM] | IC50 (VEGF receptor KDR) [nM] | IC50 (c-Met) [nM] | IC50 (A549) [nM] | IC50 (DU145) [nM] |
| --- | --- | --- | --- | --- | --- |
| Cn1ccnc1-c1cc2nccc(Oc3ccc(NC(=O)c4cccc(-c5ccccc5)c4F)cc3F)c2s1 | < 250 | < 250 | 500 to 1000 | 250 to 500 | > 1000 |
| O=C(O)c1ccc(-c2cc3nccc(Oc4ccc(NC(=O)c5cnn(-c6ccccc6)c5C(F)(F)F)cc4F)c3s2)nc1 | < 250 | > 1000 | > 1000 | > 1000 | > 1000 |
